In one data set the target is SARS CoV-2 PLpro (Severe acute respiratory syndrome coronavirus 2, UniProt P0DTD1). Kind of data set: biochemical. It counts as biochemical. As to conditions: for IC50: IC50, PLpro 0.3 µM, LKGGAMC substrate 40 µM, Tris-HCl pH 7.3, triplicate.
The next data set has as its system Vero E6 cells. To be noted: cited from earlier work.
Another data set deals with SARS-CoV. As to conditions: Vero E6 cells; ref Lin et al., 2018; cited from earlier work.
A further data set has as its system PLpro of SARS-CoV. To be noted: ref Cho et al., 2013; cited from earlier work.
A further data set relates to PLpro of MERS-CoV. As to conditions: ref Cho et al., 2013; cited from earlier work.

Several values for one entry are separate records, joined by “and”; a condition that tells them apart may be missing. Identical values can stand only once. Where only a bound is given, the exact number is not on record here.

Usually IC50 stands for the concentration at which inhibition is half-maximal. Lower therefore signals higher potency. As to `Cc1ccc(NC2CCN(C(F)(F)F)CC2)cc1C(=O)N[C@H](C)c1cccc2ccccc12` [hit 4], the IC50 against SARS CoV-2 PLpro is < 1000 nM and 800 nM.

As for `CCOC(=O)c1ccc(-c2cccc([C@@H](C)NC(=O)c3cc(NC4CNC4)ccc3C)c2)s1` [hit 2], the IC50 against SARS CoV-2 PLpro is < 1000 nM and 600 nM. Moreover, the “Inhibitory activity relative to positive control GRL0617” value at SARS CoV-2 PLpro (ratio of IC50 values against PLpro) is listed as “about 4 times”. With `Cc1ccc(N)cc1C(=O)N[C@H](C)c1cccc2ccccc12` [GRL0617], the Cytotoxicity entry with Vero E6 cells is given as “no cytotoxicity”. Besides, the “Inhibition of SARS-CoV replication” value in the data set with SARS-CoV is given as “inhibit the replication process”. For the compound `Cc1ccc(NC2COC2)cc1C(=O)N[C@H](C)c1csc2ccccc12` [hit 3], the midpoint of inhibition against SARS CoV-2 PLpro, the IC50, lay at 2100 ± 500 nM. As for `CCN(CC)C(=S)SSC(=S)N(CC)CC` [Disulfiram], the “Inhibitory effect on PLpro (mode)” value with PLpro of SARS-CoV and in the data set with PLpro of MERS-CoV was “competitive inhibitory effect” in each case. Turning to `Cc1ccc(NC2CCNCC2)cc1C(=O)N[C@H](C)c1cccc2[nH]c3ccccc3c12` [hit 1], at SARS CoV-2 PLpro, it took 2400 ± 600 nM to reach half-maximal inhibition (IC50).

Values taken from paper PMC8899470 (Frontiers in Pharmacology, 2022).
